Results from ChEMBL document CHEMBL1201862, “PubChem BioAssay data set” (2004).
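Dose response: 5 concentrations. Exposure: 48 h. Format: 96-well plates. Endpoint: linear interpolation; highest concentration if not reached. GI50 = concentration required for 50% inhibition of growth.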 Active and inactive are the calls of the source. Rule as the data show it: active = GI50 up to about 1.1 µM and inactive = higher.

Columns and labels:
Assay in all cases: DTP human tumour cell line panel, 48 h
A549 = system: A549
CAKI-1 = system: CAKI-1
DLD-1 = system: DLD-1
HCC 2998 = system: HCC 2998
KM-20L2 = system: KM-20L2
LXFL 529 = system: LXFL 529
MOLT-4 = system: MOLT-4
NCI-H460 = system: NCI-H460
OVCAR-4 = system: OVCAR-4
RPMI-8226 = system: RPMI-8226
SK-MEL-2 = system: SK-MEL-2
SK-OV-3 = system: SK-OV-3
SNB-78 = system: SNB-78
TK-10 = system: TK-10
U-251 = system: U-251
UO-31 = system: UO-31
A498 = system: A498
MCF7 = system: MCF7
MDA-N = system: MDA-N
SF-268 = system: SF-268

Compound	GI50 (A549)	GI50 (CAKI-1)	GI50 (DLD-1)	GI50 (HCC 2998)	GI50 (KM-20L2)	GI50 (LXFL 529)	GI50 (MOLT-4)	GI50 (NCI-H460)	GI50 (OVCAR-4)	GI50 (RPMI-8226)	GI50 (SK-MEL-2)	GI50 (SK-OV-3)	GI50 (SNB-78)	GI50 (TK-10)	GI50 (U-251)	GI50 (UO-31)	GI50 (A498)	GI50 (MCF7)	GI50 (MDA-N)	GI50 (SF-268)
COc1cc(O)c(C(=O)/C=C/c2ccc(OC)c(OCc3ccccc3)c2)c(OC)c1	64.6 µM (inactive)	> 100 µM (inactive)	> 100 µM (inactive)	46.9 µM (inactive)	> 100 µM (inactive)	5.45 µM (inactive)	5.46 µM (inactive)	> 100 µM (inactive)	> 100 µM (inactive)	5.86 µM (inactive)	37.8 µM (inactive)	> 100 µM (inactive)	2.57 µM (inactive)	> 100 µM (inactive)	> 100 µM (inactive)	> 100 µM (inactive)	–	–	–	–
CN(C)CCNc1ccc2ncn3c4ccc(O)cc4c(=O)c1c23	0.0661 µM (active)	0.224 µM (active)	1.08 µM (active)	2.12 µM (inactive)	2.38 µM (inactive)	1.41 µM (inactive)	0.0258 µM (active)	0.0871 µM (active)	1.04 µM (active)	0.735 µM (active)	3.79 µM (inactive)	1.29 µM (inactive)	3.03 µM (inactive)	2.66 µM (inactive)	0.214 µM (active)	0.845 µM (active)	0.745 µM (active)	0.0832 µM (active)	2.88 µM (inactive)	0.893 µM (active)
CS(=O)(=O)OCCN1CCN(C(=O)c2cccc3c(Nc4ccc(S(N)(=O)=O)cc4)c4ccccc4nc23)CC1	> 100 µM (inactive)	> 100 µM (inactive)	> 46.8 µM (inactive)	> 100 µM (inactive)	> 100 µM (inactive)	> 100 µM (inactive)	> 100 µM (inactive)	> 100 µM (inactive)	> 100 µM (inactive)	> 46.5 µM (inactive)	> 100 µM (inactive)	> 100 µM (inactive)	> 100 µM (inactive)	> 100 µM (inactive)	> 100 µM (inactive)	> 100 µM (inactive)	> 100 µM (inactive)	–	–	> 100 µM (inactive)
C(/COc1cccnc1)=N\NC1=NCCN1	> 100 µM (inactive)	> 100 µM (inactive)	> 100 µM (inactive)	> 100 µM (inactive)	> 100 µM (inactive)	> 100 µM (inactive)	> 100 µM (inactive)	> 100 µM (inactive)	> 100 µM (inactive)	> 100 µM (inactive)	> 100 µM (inactive)	> 100 µM (inactive)	> 100 µM (inactive)	> 100 µM (inactive)	> 100 µM (inactive)	> 100 µM (inactive)	> 100 µM (inactive)	–	–	> 100 µM (inactive)
CCCN(CCC)C(=O)c1nc(N)nc(-c2ccc(OC)cc2)c1-c1ccc(OC)cc1	> 100 µM (inactive)	> 100 µM (inactive)	> 100 µM (inactive)	–	> 100 µM (inactive)	82 µM (inactive)	11.2 µM (inactive)	> 100 µM (inactive)	47.9 µM (inactive)	29 µM (inactive)	> 100 µM (inactive)	> 100 µM (inactive)	80.5 µM (inactive)	> 100 µM (inactive)	> 100 µM (inactive)	> 100 µM (inactive)	> 100 µM (inactive)	–	–	> 100 µM (inactive)
O/N=C/c1ccc(O)c(O)c1	> 100 µM (inactive)	67.8 µM (inactive)	> 100 µM (inactive)	> 100 µM (inactive)	> 100 µM (inactive)	84.9 µM (inactive)	20.5 µM (inactive)	77.4 µM (inactive)	77.3 µM (inactive)	–	> 100 µM (inactive)	> 100 µM (inactive)	> 100 µM (inactive)	> 100 µM (inactive)	61.7 µM (inactive)	54 µM (inactive)	> 100 µM (inactive)	–	–	> 100 µM (inactive)
CC1=CC(=O)C(=O)C2=C1OC1(C2)C(C)CCC2C3(C)CCC(O)C(C)(C)C3CCC21C (stereo not drawn)	33.3 µM (inactive)	17.5 µM (inactive)	20.1 µM (inactive)	19 µM (inactive)	18.7 µM (inactive)	15.5 µM (inactive)	17.1 µM (inactive)	17.5 µM (inactive)	17.2 µM (inactive)	23.6 µM (inactive)	–	29 µM (inactive)	22.4 µM (inactive)	18.8 µM (inactive)	14.6 µM (inactive)	18.4 µM (inactive)	–	–	–	26.4 µM (inactive)
O=c1oc2c3ccc4ccccc4c3n(Cc3nc4ccccc4[nH]3)c2c2ccccc12	5.61 µM (inactive)	3.77 µM (inactive)	5.73 µM (inactive)	40.4 µM (inactive)	> 69.5 µM (inactive)	9.66 µM (inactive)	1.11 µM (active)	0.518 µM (active)	24.9 µM (inactive)	3.48 µM (inactive)	41.3 µM (inactive)	> 100 µM (inactive)	> 100 µM (inactive)	> 100 µM (inactive)	4.25 µM (inactive)	1.95 µM (inactive)	24.4 µM (inactive)	–	–	15.6 µM (inactive)
CCOC(=O)C(=O)Nc1nc2c(s1)C(=O)c1ccccc1C2=O	17.8 µM (inactive)	18.5 µM (inactive)	15.3 µM (inactive)	17.7 µM (inactive)	21.2 µM (inactive)	13.4 µM (inactive)	2.32 µM (inactive)	19.2 µM (inactive)	17.1 µM (inactive)	4.74 µM (inactive)	17.2 µM (inactive)	> 10 µM (inactive)	11.6 µM (inactive)	–	16.6 µM (inactive)	14.8 µM (inactive)	16.1 µM (inactive)	–	–	14.1 µM (inactive)
CCOc1ccc(/C=N\N2C(=O)c3ccccc3C2=O)cc1	> 100 µM (inactive)	> 100 µM (inactive)	> 100 µM (inactive)	> 100 µM (inactive)	> 100 µM (inactive)	> 100 µM (inactive)	> 100 µM (inactive)	> 100 µM (inactive)	> 100 µM (inactive)	> 100 µM (inactive)	> 100 µM (inactive)	–	> 100 µM (inactive)	> 100 µM (inactive)	–	> 100 µM (inactive)	> 100 µM (inactive)	–	–	> 100 µM (inactive)
O=C1NN=CN2C(=O)CCC12 (stereo not drawn)	> 100 µM (inactive)	> 100 µM (inactive)	> 100 µM (inactive)	> 100 µM (inactive)	> 100 µM (inactive)	> 100 µM (inactive)	> 100 µM (inactive)	> 100 µM (inactive)	> 100 µM (inactive)	> 100 µM (inactive)	> 100 µM (inactive)	> 100 µM (inactive)	> 100 µM (inactive)	> 100 µM (inactive)	> 100 µM (inactive)	> 100 µM (inactive)	> 100 µM (inactive)	–	–	> 100 µM (inactive)
C=CSCCC(N)C(=O)O (stereo not drawn)	> 100 µM (inactive)	> 100 µM (inactive)	> 100 µM (inactive)	> 100 µM (inactive)	> 100 µM (inactive)	> 100 µM (inactive)	> 100 µM (inactive)	> 100 µM (inactive)	> 100 µM (inactive)	–	–	–	> 100 µM (inactive)	> 100 µM (inactive)	> 100 µM (inactive)	> 100 µM (inactive)	> 100 µM (inactive)	–	–	> 100 µM (inactive)
CCN1/C(=C/C(C)=C/c2sc3ccccc3[n+]2CC)Sc2ccccc21	0.0843 µM (active)	0.203 µM (active)	0.207 µM (active)	0.255 µM (active)	0.191 µM (active)	0.0331 µM (active)	0.0637 µM (active)	0.0621 µM (active)	0.361 µM (active)	0.0223 µM (active)	0.201 µM (active)	0.0769 µM (active)	0.34 µM (active)	0.324 µM (active)	0.0378 µM (active)	0.0811 µM (active)	0.381 µM (active)	–	–	0.447 µM (active)
CN(C)CC/C(=N\Nc1c(Cl)cccc1Cl)c1ccccc1	29.3 µM (inactive)	–	31.1 µM (inactive)	–	17.1 µM (inactive)	14.8 µM (inactive)	23.4 µM (inactive)	16.3 µM (inactive)	20.3 µM (inactive)	17.2 µM (inactive)	18.2 µM (inactive)	22.5 µM (inactive)	16.7 µM (inactive)	16.8 µM (inactive)	16.8 µM (inactive)	7.08 µM (inactive)	16.6 µM (inactive)	–	–	–
Cc1cc(NS(=O)(=O)c2ccc(NC(=O)c3cccc4c(=O)c5ccccc5[nH]c34)cc2)no1	> 100 µM (inactive)	65.8 µM (inactive)	61.4 µM (inactive)	36.5 µM (inactive)	> 100 µM (inactive)	15.7 µM (inactive)	39.4 µM (inactive)	93.3 µM (inactive)	51.6 µM (inactive)	33.8 µM (inactive)	34.7 µM (inactive)	14.9 µM (inactive)	38.7 µM (inactive)	40.2 µM (inactive)	29.9 µM (inactive)	15.7 µM (inactive)	28.8 µM (inactive)	–	–	30.5 µM (inactive)
Cc1ccc(/N=C/c2ccc3c(c2)OCO3)cc1C	> 100 µM (inactive)	> 100 µM (inactive)	> 100 µM (inactive)	–	> 100 µM (inactive)	> 100 µM (inactive)	> 100 µM (inactive)	> 100 µM (inactive)	–	> 100 µM (inactive)	> 100 µM (inactive)	> 100 µM (inactive)	> 100 µM (inactive)	> 100 µM (inactive)	8.13 µM (inactive)	> 100 µM (inactive)	> 100 µM (inactive)	–	–	> 100 µM (inactive)
